Test results reported in ChEMBL document CHEMBL5380816, “Inclusion of Nitrofurantoin into the Realm of Cancer Chemotherapy via Biology-Oriented Synthesis and Drug Repurposing” (J Med Chem, 2023).
The source made the active and inactive calls. The rule behind the calls is not given here.

Legend:
[1] = Selectivity index, ratio of IC50 for human WI-38 cells to IC50 for human HepG2 cells; format: toxicity; details: WI-38 cells versus HepG2 cells, read-out: Ratio IC50
MCF7 [2] = experiment: Induction of apoptosis in human MCF7 cells assessed as ratio of gene expression activity in pro apoptotic Bax to anti apoptotic Bcl-2; format: functional
HeLa [3] = experiment: Anticancer activity against human HeLa cells incubated for 72 hrs by MTT assay; format: functional, cell-based
[4] = Selectivity index, ratio of IC50 for human WI-38 cells to IC50 for human Caco-2 cells
[5] = molecular target: T1, Tumour suppressor p53/oncoprotein Mdm2 (Homo sapiens, UniProt P04637+Q00987); experiment: Inhibition of human recombinant MDM2/p53 interaction measured after 10 mins by ELISA method; format: protein assay
Target sequence in this assay (P04637 whole entry): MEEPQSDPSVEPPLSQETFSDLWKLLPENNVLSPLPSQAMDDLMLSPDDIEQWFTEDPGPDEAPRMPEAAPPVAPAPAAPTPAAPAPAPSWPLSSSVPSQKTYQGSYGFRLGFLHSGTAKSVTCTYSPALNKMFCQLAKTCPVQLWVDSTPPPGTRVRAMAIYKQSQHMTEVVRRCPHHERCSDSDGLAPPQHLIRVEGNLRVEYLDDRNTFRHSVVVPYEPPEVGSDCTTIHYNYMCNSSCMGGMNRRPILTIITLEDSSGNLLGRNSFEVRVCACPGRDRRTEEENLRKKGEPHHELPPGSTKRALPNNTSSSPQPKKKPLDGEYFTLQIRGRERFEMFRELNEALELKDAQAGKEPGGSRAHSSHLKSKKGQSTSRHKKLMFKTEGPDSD
Target sequence in this assay (Q00987 whole entry): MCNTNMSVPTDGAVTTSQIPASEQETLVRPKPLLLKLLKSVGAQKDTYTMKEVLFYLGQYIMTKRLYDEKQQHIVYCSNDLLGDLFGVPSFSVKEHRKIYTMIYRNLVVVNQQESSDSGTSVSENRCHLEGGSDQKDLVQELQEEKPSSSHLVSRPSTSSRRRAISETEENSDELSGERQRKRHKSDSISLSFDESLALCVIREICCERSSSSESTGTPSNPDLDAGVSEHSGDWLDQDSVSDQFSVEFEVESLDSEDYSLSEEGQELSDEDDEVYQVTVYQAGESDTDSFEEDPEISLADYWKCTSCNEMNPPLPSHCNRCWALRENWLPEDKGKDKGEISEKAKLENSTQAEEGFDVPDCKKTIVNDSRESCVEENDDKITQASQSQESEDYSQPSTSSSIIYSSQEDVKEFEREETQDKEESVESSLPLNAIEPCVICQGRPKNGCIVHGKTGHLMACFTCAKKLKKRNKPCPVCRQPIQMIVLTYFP

HeLa [6] = experiment: Induction of apoptosis in human HeLa cells assessed as ratio of gene expression activity in pro apoptotic Bax to anti apoptotic Bcl-2; format: functional
MCF7 [7] = experiment: Induction of apoptosis in human MCF7 cells assessed as decrease in Bcl-2 expression level incubated for 72 hrs relative to nitrofurantoin; format: functional; design: scale not given: the % may be the effect or the level left
HeLa [8] = experiment: Induction of apoptosis in human HeLa cells assessed as decrease in Bcl-2 expression level incubated for 72 hrs relative to nitrofurantoin; format: functional; design: scale not given: the % may be the effect or the level left
HepG2 [9] = experiment: Potency index, ratio of 5-fluorouracil IC50 to test compound IC50 for antiproliferative activity against human HepG2 cells; format: functional
HepG2 [10] = experiment: Anticancer activity against human HepG2 cells incubated for 72 hrs by MTT assay; format: functional, cell-based; details: HepG2, 72 h
[11] = Selectivity index, ratio of IC50 for human WI-38 cells to IC50 for human HeLa cells; format: toxicity; details: WI-38 cells versus HeLa cells, read-out: Ratio IC50
MCF7 [12] = experiment: Induction of apoptosis in human MCF7 cells assessed as decrease in Bcl-2 expression level incubated for 72 hrs relative to 5-fluorouracil; format: functional; design: scale not given: the % may be the effect or the level left
MCF7 [13] = experiment: Induction of apoptosis in human MCF7 cells assessed as increase in Bax expression level relative to 5-fluorouracil; format: functional
HepG2 [14] = experiment: Induction of apoptosis in human HepG2 cells assessed as ratio of gene expression activity in pro apoptotic Bax to anti apoptotic Bcl-2; format: functional
[15] = Cytotoxicity in human WI-38 cells assessed as safe dose incubated for 72 hrs by MTT assay; format: toxicity, cell-based; details: read-out: EC100
Caco-2 [16] = experiment: Induction of apoptosis in human Caco-2 cells assessed as increase in Bax expression level relative to 5-fluorouracil; format: functional
MCF7 [17] = experiment: Potency index, ratio of 5-fluorouracil IC50 to test compound IC50 for antiproliferative activity against human MCF7 cells; format: functional
Caco-2 [18] = experiment: Anticancer activity against human Caco-2 cells assessed as losing contact with neighbouring cells incubated at 0.098uM for 72 hrs by phase contrast inverted microscopic analysis; format: functional, cell-based
Caco-2 [19] = experiment: Induction of apoptosis in human Caco-2 cells assessed as decrease in Bcl-2 expression level incubated for 72 hrs relative to 5-fluorouracil; format: functional; design: scale not given: the % may be the effect or the level left
HepG2 [20] = experiment: Induction of apoptosis in human HepG2 cells assessed as increase in Bax expression level relative to nitrofurantoin; format: functional
[21] = molecular target: T1, Tumour suppressor p53/oncoprotein Mdm2; experiment: Potency index, ratio of nitrofurantoin IC50 to compound IC50 for inhibition of human recombinant MDM2/p53 interaction; format: protein assay
Target sequence in this assay (P04637 whole entry, looked up): as the sequence (P04637 whole entry) above
Target sequence in this assay (Q00987 whole entry, looked up): as the sequence (Q00987 whole entry) above

[22] = Selectivity index, ratio of IC50 for human WI-38 cells to IC50 for human MCF7 cells; format: toxicity; details: WI-38 cells versus MCF7 cells, read-out: Ratio IC50
HeLa [23] = experiment: Induction of apoptosis in human HeLa cells assessed as increase in Bax expression level relative to control; format: functional
MCF7 [24] = experiment: Induction of apoptosis in human MCF7 cells assessed as increase in Bax expression level relative to nitrofurantoin; format: functional
HepG2 [25] = experiment: Induction of apoptosis in human HepG2 cells assessed as decrease in Bcl-2 expression level incubated for 72 hrs relative to nitrofurantoin; format: functional; design: scale not given: the % may be the effect or the level left
Caco-2 [26] = experiment: Anticancer activity against human Caco-2 cells incubated for 72 hrs by MTT assay; format: functional, cell-based; details: Caco-2, 72 h
Caco-2 [27] = experiment: Induction of apoptosis in human Caco-2 cells assessed as increase in Bax expression level relative to nitrofurantoin; format: functional
HeLa [28] = experiment: Induction of apoptosis in human HeLa cells assessed as decrease in Bcl-2 expression level incubated for 72 hrs relative to 5-fluorouracil; format: functional; design: scale not given: the % may be the effect or the level left
Caco-2 [29] = experiment: Induction of apoptosis in human Caco-2 cells assessed as decrease in Bcl-2 expression level incubated for 72 hrs relative to nitrofurantoin; format: functional; design: scale not given: the % may be the effect or the level left
Caco-2 [30] = experiment: Induction of apoptosis in human Caco-2 cells assessed as ratio of gene expression activity in pro apoptotic Bax to anti apoptotic Bcl-2; format: functional
[31] = Cytotoxicity in human WI-38 cells assessed as reduction in cell viability incubated for 72 hrs by MTT assay; format: toxicity, cell-based
HepG2 [32] = experiment: Induction of apoptosis in human HepG2 cells assessed as increase in Bax expression level relative to 5-fluorouracil; format: functional
HepG2 [33] = experiment: Induction of apoptosis in human HepG2 cells assessed as increase in Bax expression level relative to control; format: functional
MCF7 [34] = experiment: Anticancer activity against human MCF7 cells incubated for 72 hrs by MTT assay; format: functional, cell-based; details: MCF7, 72 h
HeLa [35] = experiment: Induction of apoptosis in human HeLa cells assessed as increase in Bax expression level relative to nitrofurantoin; format: functional
HeLa [36] = experiment: Induction of apoptosis in human HeLa cells assessed as increase in Bax expression level relative to 5-fluorouracil; format: functional
HepG2 [37] = experiment: Induction of apoptosis in human HepG2 cells assessed as decrease in Bcl-2 expression level incubated for 72 hrs relative to 5-fluorouracil; format: functional; design: scale not given: the % may be the effect or the level left
HeLa [38] = experiment: Induction of apoptosis in human HeLa cells assessed as necrotic cells incubated at 0.098 uM for 72 hrs by annexin V-FITC based propidium iodide dual staining assay (reference value: 0%); format: functional
MCF7 [39] = experiment: Antitumor activity against human MCF7 cells xenografted in immunocompromised BALB/c mouse model assessed as tumor size reduction administered at 50 mg/kg, ip for 21 days; format: functional, organism-based; details: time 21.0 day
MCF7 [40] = experiment: Antitumor activity against human MCF7 cells xenografted in immunocompromised BALB/c mouse model assessed as decrease in tumor maas administered at 50 mg/kg, ip for 21 days relative to control; format: functional; design: scale not given: the % may be the effect or the level left; details: time 21 day
Caco-2 [41] = experiment: Induction of apoptosis in human Caco-2 cells assessed as early apoptotic cells by measuring bright green patch incubated at 0.11 uM for 72 hrs by acridine orange-ethidium bromide dual staining based fluorescence microscopic analysis; format: functional, cell-based
HepG2 [42] = experiment: Induction of apoptosis in human HepG2 cells assessed as viable cells incubated at 0.11 uM for 72 hrs by annexin V-FITC based propidium iodide dual staining assay (reference value: 97.27%); format: functional; details: read-out: Activity
Caco-2 [43] = experiment: Induction of apoptosis in human Caco-2 cells assessed as viable cells incubated at 0.017 uM for 72 hrs by annexin V-FITC based propidium iodide dual staining assay (reference value: 99.89%); format: functional; details: read-out: Activity
MCF7 [44] = experiment: Anticancer activity against human MCF7 cells assessed as round cells incubated at 0.097uM for 72 hrs by phase contrast inverted microscopic analysis; format: functional, cell-based

Row | Compound | selectivity ratio [1] | Ratio (MCF7 [2]) | IC50 (HeLa [3]) | Ratio IC50 [4] | IC50 [5] | Ratio (HeLa [6]) | Activity (MCF7 [7]) | Activity (HeLa [8]) | IC50 (HepG2 [10]) | selectivity ratio [11] | Activity (MCF7 [12]) | Activity (MCF7 [13]) | Ratio (HepG2 [14]) | MNTC at 72 h [15] | Activity (Caco-2 [16]) | selectivity ratio [22] | IC50 (Caco-2 [26]) | Ratio (Caco-2 [30]) | IC50 at 72 h [31] | IC50 (MCF7 [34]) | also measured
1 | O=C(CN1C(=O)CN(/N=C/c2ccc([N+](=O)[O-])o2)C1=O)c1ccc(Cl)cc1 | 2.29 | 5.104 | 62 nM | 1.87 | 670 nM | 11.09 | 30% | 30% | 110 nM | 4.04 | 30% | 70% | 4.215 | 98 nM | 70% | 2.14 | 134 nM | 3.396 | 251 nM | 117 nM | Ratio IC50 (HepG2 [9]): 1.6; Ratio IC50 (MCF7 [17]): 1.2; Activity (Caco-2 [18]): Active; Activity (Caco-2 [19]): 30%; Activity (HepG2 [20]): 70%; Ratio IC50 [21]: 2.4; Activity (HeLa [23]): 300%; Activity (MCF7 [24]): 70%; Activity (HepG2 [25]): 30%; Activity (Caco-2 [27]): 70%; Activity (HeLa [28]): 30%; Activity (Caco-2 [29]): 30%; Activity (HepG2 [32]): 70%; Activity (HepG2 [33]): 300%; Activity (HeLa [35]): 70%; Activity (HeLa [36]): 70%; Activity (HepG2 [37]): 30%; Activity (HeLa [38]): 1.16%
2 | C#CCN1C(=O)CN(/N=C/c2ccc([N+](=O)[O-])o2)C1=O | 3.46 | 4.453 | 265 nM | 3.13 | 590 nM | 3.004 | 30% | 30% | 89 nM | 1.16 | 30% | 70% | 11.74 | 110 nM | 70% | 2.79 | 99 nM | 5.278 | 306 nM | 111 nM | Activity (MCF7 [39]): Active; Activity (MCF7 [40]): ~65%; Activity (Caco-2 [41]): Active; Ratio IC50 (HepG2 [9]): 1.2; Ratio IC50 (MCF7 [17]): 1.2; Activity (Caco-2 [19]): 30%; Activity (HepG2 [20]): 70%; Ratio IC50 [21]: 2.7; Activity (HeLa [23]): 300%; Activity (MCF7 [24]): 70%; Activity (HepG2 [25]): 30%; viability at 0.11 µM (HepG2 [42]): 32.1%; Activity (Caco-2 [27]): 70%; Activity (HeLa [28]): 30%; Activity (Caco-2 [29]): 30%; Activity (HepG2 [32]): 70%; Activity (HepG2 [33]): 300%; Activity (HeLa [35]): 70%; Activity (HeLa [36]): 70%; Activity (HepG2 [37]): 30%
3 | O=c1[nH]cc(F)c(=O)[nH]1 [FLUOROURACIL] | 1.13 | 1.246 | 199 nM | 0.76 | – | 1.257 | – | – | 178 nM | 1.02 | – | – | 1.247 | 17 nM | – | 0.865 | 266 nM | 1.187 | 192 nM | 235 nM | viability at 0.017 µM (Caco-2 [43]): 89.7%; Activity (MCF7 [39]): Active; Activity (MCF7 [40]): ~65%
4 | NS(=O)(=O)c1ccc(-n2cc(CN3C(=O)CN(/N=C/c4ccc([N+](=O)[O-])o4)C3=O)nn2)cc1 | 0.807 | 10.4 | 81 nM | 3.14 | 410 nM | 6.36 | 30% | 30% | 309 nM | 3.08 | 30% | 70% | 2.326 | 97 nM | 70% | 3.36 | 80 nM | 7.328 | 249 nM | 74 nM | Activity (MCF7 [44]): Active; Ratio IC50 (MCF7 [17]): 1.2; Activity (Caco-2 [19]): 30%; Activity (HepG2 [20]): 70%; Ratio IC50 [21]: 3.6; Activity (MCF7 [24]): 70%; Activity (HepG2 [25]): 30%; Activity (Caco-2 [27]): 70%; Activity (HeLa [28]): 30%; Activity (Caco-2 [29]): 30%; Activity (HepG2 [32]): 70%; Activity (HeLa [35]): 70%; Activity (HeLa [36]): 70%; Activity (HepG2 [37]): 30%
